Reference: article PMC9849758, “Chemically diverse activity-based probes with unexpected inhibitory mechanisms targeting trypsin-like serine proteases” (Frontiers in Chemistry, 2023)
Entries after “also recorded” stand apart in the source; their conditions may differ. Read-outs that look alike come from different tables or passages of the source.

What was measured:
Format in all cases: biochemical
uPA [1] = molecular target: T1, uPA (Homo sapiens, UniProt P00749); assay: Kinetic progress curves (kapp, mechanism); conditions: for uPA kapp: apparent second-order rate constant from progress curves, mean ± SD; for uPA mechanism of inhibition: defined by the progress curves: slow-binding (Rev.) or irreversible (Irrev.)
T1 construct: purchased HYPHEN BioMed
Protocol: (§1) Because the compounds described in this paper were previously described as irreversible inhibitors, the IC50 value is inversely correlated with the second-order rate constant of inactivation. For a simple pseudo-first-order inactivation process, the activity after incubation with inhibitor (vi) varies with the inhibitor concentration (i), as described in the following equation: vi=v0·e^−kit where v0 is the activity in the absence of an inhibitor, k is the second-order rate constant of inactivation, and t is the time. The inactivation rate constant was determined from the time course of inhibition.
(§2) Kinetic assays were performed in the following manner. The inhibitor was mixed with the substrate, and the buffer solution with the enzyme was added at the time zero. The progress curves show the release of pNA or AMC as a function of time. Initially, no inhibitor is bound to the enzyme, and the tangent to the progress curve (dA/dt) is proportional to the free enzyme concentration. The free enzyme concentration decreases over time due to inhibitor binding kinetics, as described above. Progress curves were recorded in pseudo-first-order conditions ([I]0>>[E]0) and with less than 10% conversion of the substrate during the entire time course. In these conditions, dA/dt decreases exponentially with time. The progress curves were fitted with the integrated rate equation with GraFit7 to yield a value for kobs, a pseudo-first-order rate constant. At=Ao+vs∙t+vi−vs∙1−e^−kobs∙t/kobs where At is the absorbance at time t, A0 is the absorbance at time zero, vi is the initial rate and vs is the velocity at the steady-state.
(§3) The apparent second-order rate constant (kapp) was calculated from the slope of the linear part of the plot of kobs vs. the inhibitor concentration ([I]0). In the case of competition between the inhibitor and the substrate, kapp is smaller than the “real” second-order rate constant k discussed above because a certain fraction of the enzyme is present as an enzyme-substrate complex. kapp depends on the substrate concentration used in the experiment, as described by [Lambeir et al. (1996)].
(§4) The apparent equilibrium constants were obtained from the following equations, vi/vo=1/1+I/K1; vS/vo=1/1+I/KI* where vi is the initial rate, vs is the steady-state velocity and vo is the uninhibited initial rate.

uPA [2] = molecular target: T1, uPA; assay: Jump dilution, determination of inhibition type; conditions: inhibitor at 10 times IC50, 15 min, diluted 10-fold or 100-fold; Rev./Irrev.
Protocol: (§5) The dissociation of the enzyme-inhibitor complex was monitored by substrate hydrolysis over time ([Joossens et al., 2006]).
(§6) Because ABPs are designed to be irreversible serine protease inhibitors, the IC50 is exclusively used as a first discriminatory evaluation. When an inhibitor is irreversible, its IC50 value not only depends on the substrate and enzyme concentration but also on the time of incubation with the enzyme before the reaction is started by adding the substrate. […] The progress curve in the presence of an irreversible inhibitor will show final velocities equal to zero (Figure 6C). In contrast, for a reversible inhibitor, progress curves have a non-zero final steady-state velocity (Figure 6A) ([McWhirter, 2021]). To corroborate the inhibitory mechanism of the compounds, jump-dilution assays were performed. These use an inhibitor concentration of 10-fold the IC50 for the incubation, and a posteriori, the reaction mixture is diluted 10-fold or 100-fold before adding the substrate. In the case of an irreversible inhibitor, enzymatic activity is not regained (Figure 6D), whereas, in the case of a reversible compound, a slow release of the inhibitor and a gradual increase of the enzymatic activity rate is observed (Figure 6B) ([Copeland, 2013]; [McWhirter, 2021]). The jump-dilution assays confirmed the behavior described by the progress curves.
(§7) 2.2.2 Jump dilution results
(§8) Supplementary Table 2. Jump dilution of selected alkyne and desthiobiotin probes against a panel of trypsin-like serine proteases. […]
(§9) # R R DtBa 3 tryptase Thrombin uPA CatG
(§10) 32b H Alk Irrev. Irrev. Rev. Irrev. Rev.
(§11) 45b DtB Irrev. Irrev. Rev. N.D. N.D.
(§12) 33b Alk Irrev. Irrev. Rev. Irrev. Rev.
(§13) 46b Cl DtB Irrev. Irrev. Rev. N.D. N.D.
(§14) 34b H Alk Rev. Rev. Rev. Irrev. Rev.
(§15) 50b DtB Rev. Rev. Rev. Irrev. Rev.
(§16) 35b Alk Rev. Rev. Rev. Irrev. Rev.
(§17) 52b NHCOMe DtB Rev. Rev. Rev. Irrev. Rev.
(§18) 36b Alk Rev. Rev. Rev. Irrev. Rev.
(§19) 54b Cl DtB Rev. Rev. Rev. Irrev. Rev.
(§20) 37b Alk Irrev. Irrev. N.D. Irrev. Irrev.
(§21) 55b H DtB Irrev. Irrev. N.D. Irrev. Irrev.
(§22) 38b Alk Irrev. Irrev. N.D. Irrev. Irrev.
(§23) 56b NHCOMe DtB Irrev. Irrev. N.D. Irrev. Irrev.
(§24) 39b Alk Irrev. Irrev. N.D. Irrev. Rev.
(§25) 57b Cl DtB Irrev. Irrev. N.D. Irrev. Rev.
(§26) 41b H Alk Irrev. Irrev. Irrev. N.D. N.D.
(§27) 31b Pro-Lys H Alk Irrev. Irrev. Irrev. Irrev. N.D. a Alk: ABP precursor bearing an alkyne; DtB: desthiobiotin probe b Panel of serine proteases abbreviations: urokinase plasminogen activator (uPA), cathepsin G (catG) N.D.: IC50 is greater than 10µM, and jump dilution was not performed
(§28) 2.2.3 Progress curves and Jump dilution experiments
(§29) Kinetic assays were performed in the following manner. The inhibitor was mixed with the substrate, and the buffer solution with the enzyme was added at the time zero. The progress curves show the release of para-nitroaniline (pNA) or 7-amino-4-methyl coumarin (AMC) as a function of time.
(§30) To monitor the dissociation of the inhibitor-enzyme, aliquots of the enzyme were incubated at 37 °C without and with the inhibitor at a concentration 10 times higher than its IC 50. The enzyme […]
(§31) min, the aliquots were diluted 10-fold or 100-fold into the substrate concentration and assay buffer used for the IC50 determination. The dissociation of the enzyme-inhibitor complex was monitored by substrate hydrolysis over time. Blue lines represent the control where no inhibitor was present. Pink lines represent the assay with inhibitor.

Thrombin = molecular target: T2, Thrombin (Homo sapiens, UniProt P00734); assay: Kinetic progress curves (kapp, K1, KI*, mechanism); conditions: for Ki / Thrombin kapp: mean ± SD; for Thrombin kapp: apparent second-order rate constant from progress curves; for Thrombin mechanism of inhibition: defined by the progress curves: slow-binding (Rev.) or irreversible (Irrev.)
T2 construct: purchased R&D
Protocol: as §1, §2, §3, §4

β-tryptase = β-tryptase (Homo sapiens, UniProt P20231); assay: Jump dilution, determination of inhibition type; design: purchased EnzoLife Sciences; conditions: inhibitor at 10 times IC50, 15 min, diluted 10-fold or 100-fold; Rev./Irrev.
Sequence of β-tryptase (P20231 31-275): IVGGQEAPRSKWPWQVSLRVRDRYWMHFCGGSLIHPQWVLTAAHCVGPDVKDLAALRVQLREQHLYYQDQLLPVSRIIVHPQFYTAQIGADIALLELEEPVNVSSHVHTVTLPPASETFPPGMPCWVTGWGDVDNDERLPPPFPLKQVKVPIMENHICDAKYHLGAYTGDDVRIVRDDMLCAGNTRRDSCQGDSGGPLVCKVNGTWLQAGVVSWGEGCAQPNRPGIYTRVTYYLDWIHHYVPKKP
Protocol: as §5, §6, §7, §8, §9, §10, §11, §12, §13, §14, §15, §16, §17, §18, §19, §20, §21, §22, §23, §24, §25, §26, §27, §28, §29, §30, §31

[3] = Thrombin K1, apparent equilibrium constant of the first step of slow-binding
[4] = Thrombin KI*, apparent equilibrium constant of the overall process
[5] = read-out: Thrombin K1, apparent equilibrium constant of the first step of slow-binding
[6] = read-out: Thrombin KI*, apparent equilibrium constant of the overall process

| Structure (SMILES) | uPA kapp (uPA [1]) | uPA mechanism of inhibition (uPA [1]) | uPA jump dilution result (uPA [2]) | Ki (Thrombin; [3]) [nM] | Ki (Thrombin; [4]) [nM] | Thrombin kapp (Thrombin) | Thrombin mechanism of inhibition (Thrombin) | β-tryptase jump dilution result (β-tryptase) | Ki (Thrombin; [5]) [nM] | Ki (Thrombin; [6]) [nM] |
| --- | --- | --- | --- | --- | --- | --- | --- | --- | --- | --- |
| C#CCCCOC(=O)NC(CCCNC(=N)N)P(=O)(Oc1ccccc1)Oc1ccccc1 (stereo not shown) [32b] | 41 ± 4 M⁻¹ s⁻¹ | Irrev. | Irrev. | 22600 ± 5000 | 450 ± 30 | 64 ± 8 M⁻¹ s⁻¹ | Rev. | Irrev. | – | – |
| C#CCCCOC(=O)NC(CCCNC(=N)N)P(=O)(Oc1ccc(Cl)cc1)Oc1ccc(Cl)cc1 (stereo not shown) [33b] | 15 × 10^2 ± 12 M^−1 s^−1 | irreversibility; also recorded: Irrev | Irrev. | 4130 ± 700 | 280 ± 40 | 11 × 10^2 ± 42 M^−1 s^−1 | reversible inhibition and Rev. | Irrev. | – | – |
| C#CCCCOC(=O)NC(Cc1ccc(NC(=N)N)cc1)P(=O)(Oc1ccccc1)Oc1ccccc1 (stereo not shown) [34b] | 75 × 10^2 ± 725 M^−1 s^−1 | Irrev. | Irrev. | 134000 ± 26000 | 4930 ± 510 | 17 ± 1 M⁻¹ s⁻¹ | Rev. | Rev. | – | – |
| C#CCCCOC(=O)NC(Cc1ccc(NC(=N)N)cc1)P(=O)(Oc1ccc(NC(C)=O)cc1)Oc1ccc(NC(C)=O)cc1 (stereo not shown) [35b] | 130000 ± 30000 M⁻¹ s⁻¹ | Irrev. | Irrev. | 32700 ± 4000 | 630 ± 40 | 128 ± 5 M⁻¹ s⁻¹ | Rev. | Rev. | – | – |
| C#CCCCOC(=O)NC(c1ccc(NC(=N)N)cc1)P(=O)(Oc1ccccc1)Oc1ccccc1.O=C(O)C(F)(F)F (stereo not shown) [37b, Pent-4-yn-1-yl ((diphenoxyphosphoryl)(4-guanidinophenyl)methyl)carbamate trifluoroacetate salt] | 124 ± 23 M⁻¹ s⁻¹ | Irrev. | Irrev. | – | – | – | – | Irrev. | – | – |
| C#CCCCOC(=O)NC(c1ccc(NC(=N)N)cc1)P(=O)(Oc1ccc(NC(C)=O)cc1)Oc1ccc(NC(C)=O)cc1 (stereo not shown) [38b, Pent-4-yn-1-yl ((bis(4-acetamidophenoxy)phosphoryl)(4-guanidinophenyl)methyl) carbamate] | 215 ± 7 M⁻¹ s⁻¹ | Irrev. | Irrev. | – | – | – | – | Irrev. | – | – |
| C#CCCCOC(=O)NC(c1ccc(NC(=N)N)cc1)P(=O)(Oc1ccc(Cl)cc1)Oc1ccc(Cl)cc1 (stereo not shown) [39b, Pent-4-yn-1-yl ((bis(4-chlorophenoxy)phosphoryl)(4-guanidinophenyl)methyl)carbamate] | – | Irrev. | Irrev. | – | – | – | – | Irrev. | – | – |
| C#CCCCOC(=O)NC(C1CCN(C(=N)N)CC1)P(=O)(Oc1ccccc1)Oc1ccccc1 (stereo not shown) [41b] | – | – | – | – | – | 41 × 10^2 ± 38 M^−1 s^−1 | irreversible inhibition; also recorded: Irrev | Irrev. | – | – |
| C[C@@H]1NC(=O)N[C@@H]1CCCCCC(=O)NCCOCCOCCOCCn1cc(CCCOC(=O)NC(CCCNC(=N)N)P(=O)(Oc2ccccc2)Oc2ccccc2)nn1 (stereo partly shown) [45b] | – | – | – | – | – | 19 ± 2 M⁻¹ s⁻¹ | Rev. | Irrev. | 9970 ± 1000 | 1140 ± 110 |
| C[C@@H]1NC(=O)N[C@@H]1CCCCCC(=O)NCCOCCOCCOCCn1cc(CCCOC(=O)NC(CCCNC(=N)N)P(=O)(Oc2ccc(Cl)cc2)Oc2ccc(Cl)cc2)nn1 (stereo partly shown) [46b] | 940 ± 37 M⁻¹ s⁻¹ | Irrev. | – | – | – | 63 × 10^2 ± 290 M^−1 s^−1 | Rev. | Irrev. | 950 ± 200 | 70 ± 9 |
| C[C@@H]1NC(=O)N[C@@H]1CCCCCC(=O)NCCOCCOCCOCCn1cc(CCCOC(=O)NC(c2ccc(NC(=N)N)cc2)P(=O)(Oc2ccccc2)Oc2ccccc2)nn1 (stereo partly shown) [55b] | 77 ± 1 M⁻¹ s⁻¹ | Irrev. | Irrev. | – | – | – | – | Irrev. | – | – |
| CC(=O)Nc1ccc(OP(=O)(Oc2ccc(NC(C)=O)cc2)C(NC(=O)OCCCc2cn(CCOCCOCCOCCNC(=O)CCCCC[C@H]3NC(=O)N[C@H]3C)nn2)c2ccc(NC(=N)N)cc2)cc1 (stereo partly shown) [56b] | 62 ± 2 M⁻¹ s⁻¹ | Irrev. | Irrev. | – | – | – | – | Irrev; also recorded: Irreversible | – | – |
| C[C@@H]1NC(=O)N[C@@H]1CCCCCC(=O)NCCOCCOCCOCCn1cc(CCCOC(=O)NC(c2ccc(NC(=N)N)cc2)P(=O)(Oc2ccc(Cl)cc2)Oc2ccc(Cl)cc2)nn1 (stereo partly shown) [57b] | 25 × 10^2 ± 11 M^−1 s^−1 | Irrev. | Irrev. | – | – | – | – | Irrev. | – | – |
